Measured values published in US10738051B2, “β-lactamase inhibitors” (priority 2016, dated 2020).

What was measured:
Assay in all cases: In vitro synergistic inhibitory concentration (SIC) assay
Format in all cases: cell-based
[1] = test system: E. cloacae ATCC BAA-1143 (AmpC); details: Enterobacter cloacae, ATCCBAA1143, 37° C. 20 hours, read-out: minimum inhibitory concentration, used alone
Method: (§1) 2) 30 μL dimethyl sulfoxide was added to columns 2-12 of the 96-V well plate. 60 μL prepared ceftazidime was added to column 1. 30 μL ceftazidime was transferred from column 1 to column 2 and mixed with a pipette. The same operation was continued until column 11, and 30 μL of the mixture in column 11 was discarded. This was the compound mother plate.
(§2) Mix the liquid in the mother plate with a pipette.
(§3) 4) One day before the experiment, the bacterial glycerol stock which was stored in a −80° C. refrigerator was streaked on a trypticase soy agar plate (TSA), and the plate was incubated in a 37° C. incubator overnight. On the day of the experiment, the monoclonal bacterial was suspended in physiological saline and the turbidity of which was adjusted to 0.5 McFarland standard, corresponding to 1×10^8 CFU/ml. This suspension was diluted 100-fold to 1×10^6 CFU/mL with caton-adjusted Mueller-Hnton broth (CAMHB), which was used as an inoculation fluid.
(§4) 5) a 96-U plate was used as a test plate. Firstly, adding 98 μL CAMHB to each well of the test plate and transferring 2 μL solution in the mother plate to the test plate. 100 μL inoculation fluid was added to each well of the test plate.
(§5) 6) The test plate was incubated at 37° C. for 20 hours.
(§6) The above-mentioned method was also used to determine the antibacterial activity of the test compound or the antibiotic when used alone.

[2] = test system: K. pneumoniae ATCC BAA-2524 (OXA-48); details: Klebsiella pneumoniae, ATCCBAA2524, 37° C. 20 hours, read-out: minimum inhibitory concentration, used alone
Method: as §1, §2, §3, §4, §5, §6

[3] = test system: K. pneumoniae ATCC BAA-2470 (NDM-1); details: Klebsiella pneumoniae, ATCCBAA2470, 37° C. 20 hours, read-out: minimum inhibitory concentration, used alone
Method: as §1, §2, §3, §4, §5, §6

[4] = test system: K. pneumoniae ATCC 51504 (TEM-10); details: Klebsiella pneumoniae, ATCC51504, 37° C. 20 hours, read-out: minimum inhibitory concentration, used alone
Method: as §1, §2, §3, §4, §5, §6

[5] = test system: K. pneumoniae ATCC BAA-1144 (AmpC); details: Klebsiella pneumoniae, ATCCBAA1144, 37° C. 20 hours, read-out: minimum inhibitory concentration, used alone
Method: as §1, §2, §3, §4, §5, §6

[6] = test system: K. pneumoniae ATCC BAA-205 (TEM-1/SHV-1/SHV-12); details: Klebsiella pneumoniae, ATCCBAA205, 37° C. 20 hours, read-out: minimum inhibitory concentration, used alone
Method: as §1, §2, §3, §4, §5, §6

[7] = test system: E. coli ATCC BAA-2523 (OXA-48); details: Escherichia coli, ATCCBAA2523, 37° C. 20 hours, read-out: minimum inhibitory concentration, used alone
Method: as §1, §2, §3, §4, §5, §6

[8] = test system: K. pneumoniae ATCC BAA-2472 (NDM-1); details: Klebsiella pneumoniae, ATCCBAA2472, 37° C. 20 hours, read-out: minimum inhibitory concentration, used alone
Method: as §1, §2, §3, §4, §5, §6

N=C(N)NOCCONC(=O)[C@@H]1CC[C@@H]2CN1C(=O)N2OS(=O)(=O)O [Compound 1]
MIC [1]: 16 µg/mL | MIC [2]: > 128 µg/mL | MIC [3]: > 128 µg/mL | MIC [4]: > 128 µg/mL | MIC [5]: 128 µg/mL | MIC [6]: 128 µg/mL | MIC [7]: 8 µg/mL | MIC [8]: > 128 µg/mL
